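Five compound concentrations were applied to cells in 96-well plates for 48 hours; endpoints were derived by simple linear interpolation of the resulting dose-response curve. Here, GI50 denotes the concentration required for 50% inhibition of growth. TGI denotes the concentration required for complete inhibition of growth.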
Key:
Assay in all cases: NCI-60 cell line screen, 48 h
LOX IMVI melanoma = tested on: LOX IMVI melanoma
UACC-257 melanoma = tested on: UACC-257 melanoma
MOLT-4 leukemia = tested on: MOLT-4 leukemia
BT-549 breast = tested on: BT-549 breast
SK-MEL-28 melanoma = tested on: SK-MEL-28 melanoma
SN12C renal = tested on: SN12C renal
UO-31 renal = tested on: UO-31 renal
PC-3 prostate = tested on: PC-3 prostate
SF-539 CNS = tested on: SF-539 CNS
NCI-H226 lung = tested on: NCI-H226 lung
KM12 colon = tested on: KM12 colon
OVCAR-3 ovarian = tested on: OVCAR-3 ovarian
SK-MEL-5 melanoma = tested on: SK-MEL-5 melanoma
A498 renal = tested on: A498 renal
SK-OV-3 ovarian = tested on: SK-OV-3 ovarian
HT29 colon = tested on: HT29 colon
OVCAR-5 ovarian = tested on: OVCAR-5 ovarian
CAKI-1 renal = tested on: CAKI-1 renal
RPMI-8226 leukemia = tested on: RPMI-8226 leukemia
SR leukemia = tested on: SR leukemia
OVCAR-4 ovarian = tested on: OVCAR-4 ovarian
IGROV1 ovarian = tested on: IGROV1 ovarian
HCC-2998 colon = tested on: HCC-2998 colon
TK-10 renal = tested on: TK-10 renal
U251 CNS = tested on: U251 CNS
MDA-MB-231 breast = tested on: MDA-MB-231 breast
CCRF-CEM leukemia = tested on: CCRF-CEM leukemia
SNB-75 CNS = tested on: SNB-75 CNS
SF-295 CNS = tested on: SF-295 CNS
UACC-62 melanoma = tested on: UACC-62 melanoma
SK-MEL-2 melanoma = tested on: SK-MEL-2 melanoma
EKVX NSCLC = tested on: EKVX NSCLC
HL-60(TB) leukemia = tested on: HL-60(TB) leukemia
HS 578T breast = tested on: HS 578T breast
SF-268 CNS = tested on: SF-268 CNS
MCF7 breast = tested on: MCF7 breast
OVCAR-8 ovarian = tested on: OVCAR-8 ovarian
COLO 205 colon = tested on: COLO 205 colon
RXF 393 renal = tested on: RXF 393 renal
NCI-H460 lung = tested on: NCI-H460 lung
T-47D breast = tested on: T-47D breast
HCT-15 colon = tested on: HCT-15 colon
NCI-H522 lung = tested on: NCI-H522 lung
HCT-116 colon = tested on: HCT-116 colon
HOP-92 NSCLC = tested on: HOP-92 NSCLC
ACHN renal = tested on: ACHN renal
SNB-19 CNS = tested on: SNB-19 CNS
NCI-H23 lung = tested on: NCI-H23 lung
MALME-3M melanoma = tested on: MALME-3M melanoma
M14 melanoma = tested on: M14 melanoma
DU-145 prostate = tested on: DU-145 prostate
786-0 renal = tested on: 786-0 renal
NCI/ADR-RES ovarian = tested on: NCI/ADR-RES ovarian
SW-620 colon = tested on: SW-620 colon
HOP-62 NSCLC = tested on: HOP-62 NSCLC
MDA-MB-435 = tested on: MDA-MB-435

CC(=O)OC(C)C(OC(C)=O)C(OC(C)=O)C(/C=C/C1CC=CC(=O)O1)OC(C)=O (configuration not stated)
GI50 (LOX IMVI melanoma): 29.1 µM | TGI (LOX IMVI melanoma): > 100 µM | GI50 (UACC-257 melanoma): 19.5 µM | TGI (UACC-257 melanoma): 42.1 µM | GI50 (MOLT-4 leukemia): 29.2 µM | TGI (MOLT-4 leukemia): 97.5 µM | GI50 (BT-549 breast): 25.5 µM | TGI (BT-549 breast): 70.6 µM | GI50 (SK-MEL-28 melanoma): 16.8 µM | TGI (SK-MEL-28 melanoma): 46.6 µM | GI50 (SN12C renal): 10.5 µM | TGI (SN12C renal): 36.4 µM | GI50 (UO-31 renal): 42.8 µM | TGI (UO-31 renal): > 100 µM | GI50 (PC-3 prostate): 73.2 µM | TGI (PC-3 prostate): > 100 µM | GI50 (SF-539 CNS): 21.5 µM | TGI (SF-539 CNS): 43.5 µM | GI50 (NCI-H226 lung): 42.6 µM | TGI (NCI-H226 lung): > 100 µM | GI50 (KM12 colon): 22.8 µM | TGI (KM12 colon): 61 µM | GI50 (OVCAR-3 ovarian): 30.8 µM | TGI (OVCAR-3 ovarian): 95.5 µM | GI50 (SK-MEL-5 melanoma): 26.3 µM | TGI (SK-MEL-5 melanoma): > 100 µM | GI50 (A498 renal): 16.9 µM | TGI (A498 renal): 45.3 µM | GI50 (SK-OV-3 ovarian): 78 µM | TGI (SK-OV-3 ovarian): > 100 µM | GI50 (HT29 colon): 15.8 µM | TGI (HT29 colon): 47.7 µM | GI50 (OVCAR-5 ovarian): 82.8 µM | TGI (OVCAR-5 ovarian): > 100 µM | GI50 (CAKI-1 renal): 43.3 µM | TGI (CAKI-1 renal): > 100 µM | GI50 (RPMI-8226 leukemia): 26.7 µM | TGI (RPMI-8226 leukemia): 83.5 µM | GI50 (SR leukemia): 19.4 µM | TGI (SR leukemia): 53.4 µM | GI50 (OVCAR-4 ovarian): 17.2 µM | TGI (OVCAR-4 ovarian): 56.1 µM | GI50 (IGROV1 ovarian): 32 µM | TGI (IGROV1 ovarian): > 100 µM | GI50 (HCC-2998 colon): 22.9 µM | TGI (HCC-2998 colon): 45.3 µM | GI50 (TK-10 renal): 40.6 µM | TGI (TK-10 renal): > 100 µM | GI50 (U251 CNS): 30.7 µM | TGI (U251 CNS): > 100 µM | GI50 (MDA-MB-231 breast): 21.8 µM | TGI (MDA-MB-231 breast): 53.6 µM | GI50 (CCRF-CEM leukemia): 30.3 µM | TGI (CCRF-CEM leukemia): > 100 µM | GI50 (SNB-75 CNS): 10.3 µM | TGI (SNB-75 CNS): 28.6 µM | GI50 (SF-295 CNS): 51 µM | TGI (SF-295 CNS): > 100 µM | GI50 (UACC-62 melanoma): 25.4 µM | TGI (UACC-62 melanoma): 67.8 µM | GI50 (SK-MEL-2 melanoma): 35.9 µM | TGI (SK-MEL-2 melanoma): > 100 µM | GI50 (EKVX NSCLC): 39.6 µM | TGI (EKVX NSCLC): > 100 µM | GI50 (HL-60(TB) leukemia): 20.4 µM | TGI (HL-60(TB) leukemia): 43.3 µM | GI50 (HS 578T breast): 12.4 µM | TGI (HS 578T breast): 33.1 µM | GI50 (SF-268 CNS): 27.5 µM | TGI (SF-268 CNS): 75.7 µM | GI50 (MCF7 breast): 33.6 µM | TGI (MCF7 breast): > 100 µM | GI50 (OVCAR-8 ovarian): 26.8 µM | TGI (OVCAR-8 ovarian): 89.2 µM | GI50 (COLO 205 colon): 22 µM | TGI (COLO 205 colon): 64.6 µM | GI50 (RXF 393 renal): 21.3 µM | TGI (RXF 393 renal): 73.4 µM | GI50 (NCI-H460 lung): 32.7 µM | TGI (NCI-H460 lung): > 100 µM | GI50 (T-47D breast): 27.3 µM | TGI (T-47D breast): 80.1 µM | GI50 (HCT-15 colon): 32.2 µM | TGI (HCT-15 colon): > 100 µM | GI50 (NCI-H522 lung): 22.9 µM | TGI (NCI-H522 lung): 60.3 µM | GI50 (HCT-116 colon): 20.4 µM | TGI (HCT-116 colon): 48.4 µM | GI50 (HOP-92 NSCLC): 20.8 µM | TGI (HOP-92 NSCLC): 64.6 µM | GI50 (ACHN renal): 33.7 µM | TGI (ACHN renal): > 100 µM | GI50 (SNB-19 CNS): 33.5 µM | TGI (SNB-19 CNS): > 100 µM | GI50 (NCI-H23 lung): 31.3 µM | TGI (NCI-H23 lung): 98 µM | GI50 (MALME-3M melanoma): 36.5 µM | TGI (MALME-3M melanoma): > 100 µM | GI50 (M14 melanoma): 29.5 µM | TGI (M14 melanoma): > 100 µM | GI50 (DU-145 prostate): 18.8 µM | TGI (DU-145 prostate): 43.1 µM | GI50 (786-0 renal): 37.8 µM | TGI (786-0 renal): > 100 µM | GI50 (NCI/ADR-RES ovarian): > 100 µM | TGI (NCI/ADR-RES ovarian): > 100 µM | GI50 (SW-620 colon): 16.1 µM | TGI (SW-620 colon): 46.3 µM | GI50 (HOP-62 NSCLC): 37.8 µM | TGI (HOP-62 NSCLC): > 100 µM | GI50 (MDA-MB-435): 37.6 µM | TGI (MDA-MB-435): > 100 µM

Source: PubChem BioAssay (NCI)
